# According to patent US8232245B2, “Caspofungin formulations” (Sandoz AG, priority 2006, dated 2012):
# Assay: Solubility / dissolution in water and solid form stability of caspofungin propionate
# Type: physicochemical
SMILES,solubility in water,stability of solid form (crystalline versus amorphous form),time to dissolve (533.5 mg crystalline salt in 5 ml aqueous mannitol 40 mg/ml / sucrose 60 mg/ml)
"CCC(C)CC(C)CCCCCCCCC(=O)N[C@H]1C[C@@H](O)[C@@H](NCCN)NC(=O)[C@@H]2[C@@H](O)CCN2C(=O)[C@H]([C@H](O)CCN)NC(=O)[C@H]([C@H](O)[C@@H](O)c2ccc(O)cc2)NC(=O)[C@@H]2C[C@@H](O)CN2C(=O)[C@H]([C@@H](C)O)NC1=O (stereo partly drawn) [Crystalline caspofungin propionate, caspofungin propionate]",freely soluble in water,more stable than the amorphous form,
"CCC(C)CC(C)CCCCCCCCC(=O)N[C@H]1C[C@@H](O)[C@@H](NCCN)NC(=O)[C@@H]2[C@@H](O)CCN2C(=O)[C@H]([C@H](O)CCN)NC(=O)[C@H]([C@H](O)[C@@H](O)c2ccc(O)cc2)NC(=O)[C@@H]2C[C@@H](O)CN2C(=O)[C@H]([C@@H](C)O)NC1=O (stereo partly drawn) [Caspofungin dipropionate, caspofungin dipropionate]",,,≤ 3 min
